According to patent publication US20240417393A1, “CERTAIN 2,5-DIAZABICYCLO[4.2.0]OCTANES AS GLP-1 RECEPTOR MODULATORS” (ASTRAZENECA AB, priority 2021, published 2024):

Columns and labels:
[1] = target: T1, human GLP-1R receptor (Homo sapiens, UniProt P43220, L260F); test: CHOK1 GLP-1R cAMP Assay (HTRF); format: cell-based; details: CHO-K1 cells stably expressing human GLP-1R (Leu260Phe variant), 20 min at rt
T1 construct: expressed in transfected cells; host or cells: CHO-K1 (ATCC CCL-61)
Method: A cell line stably expressing the human GLP-1R receptor (NM_002062.5, including the naturally-occurring variant Leu260Phe) in a CHO-K1 (ATCC® CCL-61™) was used for assay.
GLP-1 receptor mediated agonist activity was determined in a cell-based assay measuring cyclic adenosine monophosphate (cAMP) levels in cells using Homogeneous Time-Resolved Fluorescence (HTRF) cAMP detection kit (CisBio catalog #62AM4PEC, cAMP Gs Dynamic range kit). The cAMP detection method is based on a competitive immunoassay, in which cAMP produced by the cells and cAMP labeled with the dye d2 compete for binding to a Europium-Cryptate-labeled anti-cAMP antibody. The specific HTRF signal is inversely proportional to the concentration of cAMP.
Compounds were added to individual well in 384 well-assay plates (Greiner #784076) using an Echo (LabCyte) dispenser from 10 mM stocks. Varying concentration of compounds were added to wells, and DMSO was used to normalize each well to a volume of 100 nL. A dose response curve of GLP-1(7-36)NH2 (Bachem H-6795) was included in each run. 5 μL of cAMP concentration response standards are applied in specified wells in the assay plates. Cryo-preserved cells are thawed and resuspended in assay buffer pre-heated to 37° C. (20 mM 2-[4-(2-hydroxyethyl)piperazin-1-yl]ethanesulfonic acid (HEPES) pH 7.4, 1× Hank's Balanced Salt Solution (HBSS, Life Technologies #14065) supplemented with 0.1% (w/v) bovine serum albumin (Sigma, A-7030)). Cells were centrifuged at 250*g for 5 min at rt, and resuspended in room tempered assay buffer to a final density of 0.16*10^6 cell/mL, to deliver 800 cells/well. 5 μL of assay buffer with 1 mM 3-isobutyl-1-methylxanthin (IBMX; Sigma cat I-7018) was dispensed per well in assay plates using a multidrop combi (Thermo Scientific) subsequently 5 μL of cell suspension was distributed to relevant wells in the assay using a multidrop dispenser. Assay plates were incubated 20 min at rt.
Detection reagents, Europium-Cryptate-labeled anti-cAMP antibody and cAMP labeled with the dye d2, are diluted in lysis buffer, provided by the manufacturer. 5 μL of each detection reagent is supplemented to each assay well using a multidrop dispenser. Assay plates are incubated in the dark for at least one h. The HTRF signal is measured using the HTRF module (excitation: 337 nm, emission A: 665 nm and emission B: 620 nm) in Pherastar FSX (BMG Labtech).
Raw data were converted to pM cAMP using the cAMP standard curve included in each run. Converted data were further analyzed in Genedata Screener (Genedata) and EC50 determinations were made from agonist dose-response curves analyzed with a curve fitting is program using a 4-parameter logistic dose response equation (Equation y=A+((B-A)/1+((C/x)^D))) where A is no stimulation, B is full stimulation, C is the EC50 and D is the Hill slope). The percent effect was determined relative to a saturating concentration of a full GLP-1R agonist (GLP-1(7-36)NH2 has 100% effect in this assay setup).

[2] = target: T2, GLP-1R in a pancreatic insulinoma cell line (EndoC-PH1) (Homo sapiens, UniProt P43220); test: EndoC cAMP Accumulation Assay (HTRF); format: cell-based; details: EndoC-PH1 human pancreatic beta cell line, endogenous GLP-1R, 30 min at rt
T2 construct: host or cells: EndoC-βH1 human pancreatic beta cell line
Source text: EndoC cAMP Accumulation Assay
A HTRF cAMP assay (cAMP Gs dynamic kit; CisoBio Cat #62AM4PEJ) was used to identify agonists of GLP-1R in a pancreatic insulinoma cell line (EndoC-PH1). […] EndoC-PHlcells have detectable GLP-1R messenger ribonucleic acid (mRNA) as detected by quantitative polymerase chain reaction (qPCR). […] The EndoC-PH1 cell line is a valid model of human beta cells and applicable for screenings to identify novel drug target candidates (Mol. Metab., 2018, 8, 144-157). CisBio HTRF cAMP kits are based on a competitive immunoassay using cryptate-labelled anti-cAMP antibody and d2-labeled cAMP. The detection kit is intended for the direct is quantitative determination of cAMP. The specific signal (i.e. energy transfer) is inversely proportional to the concentration of cAMP in the standard or sample. Test compounds (10 mM in DMSO) were diluted into assay buffer (HBSS (Sigma #H8264) supplemented with 25 mM HEPES (Gibco #15630, pH 7.4), 0.1% BSA (Sigma #A3059) and 0.5 mM IBMX (Sigma #I7018) included fresh on the day of the assay) into 96 well U-bottom plates (Greiner #650201). Diluted compounds were transferred to ECHO source polypropelene plates (Labcyte #P-05525) and dose response curves were dispensed acoustically using ECHO 550 into black shallow-well u-bottom 384-well HTRF Assay Plates (Corning 4514). Cryovials of EndoC-H1 (supplied at 1×10e^7 cells/vial) were used directly for screening. The cryovials and were removed from N2(1) and thawed rapidly in a 37° C. water bath. The cells were resuspended in assay buffer and centrifuged at 300 g for 5 min. Cells were resuspended in assay buffer at the appropriate concentration, typically at 12e5 cells per mL (3000 cells per well, dependent on cell batch) and 2.5 μL diluted cells were added to all wells of destination plate by Multidrop combi reagent dispenser (Thermofisher). The plates were incubated at rt for 30 min. The assay was stopped by adding 2.5 μL anti-cAMP cryptate solution to all wells and 2.5 μL cAMP-d2 solution (both diluted 1:20 in lysis buffer) to columns 1-22 by Combi drop. A volume of 2.5 μL cAMP-d2 solution was added to wells E23 to P24 and 2.5 μL lysis buffer added to wells A23 to D24 by multichannel pipette. The plates were incubated at rt for 1 h and read on an Envision plate reader using excitation wavelength of 320 nm and emission of […] and 660 nm.
Raw data from Envision is converted to % DeltaF according to the manufacturer's instructions. Dose response curves are analysed via 4-Parameter Logistical Analysis and assay plate Z’ values obtained. Samples are graphed as percentage (%) activation plots compared to […] with assay window defined by negative control as basal cell is cAMP levels and positive control are defined by maximum GIP (82.5 nM) signal. GLP-1 (7-36 amide, Bachem H-6795) dose response curve was included on all plates.

T1 sequence (P43220 24-463 L260F): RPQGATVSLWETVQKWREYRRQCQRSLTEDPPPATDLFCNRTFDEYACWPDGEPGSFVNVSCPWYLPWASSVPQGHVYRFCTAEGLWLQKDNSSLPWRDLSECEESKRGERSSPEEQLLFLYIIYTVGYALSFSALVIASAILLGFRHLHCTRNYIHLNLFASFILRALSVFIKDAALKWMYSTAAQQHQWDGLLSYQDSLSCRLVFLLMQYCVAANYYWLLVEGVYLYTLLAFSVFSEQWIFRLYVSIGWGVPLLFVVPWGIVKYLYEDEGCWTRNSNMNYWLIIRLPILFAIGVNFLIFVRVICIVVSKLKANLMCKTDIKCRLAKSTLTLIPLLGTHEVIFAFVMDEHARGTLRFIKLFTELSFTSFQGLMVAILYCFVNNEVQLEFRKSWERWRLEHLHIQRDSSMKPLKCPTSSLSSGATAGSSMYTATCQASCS
T2 sequence (P43220 24-463): as the sequence (P43220 24-463 L260F) above, with F237L counted along it

SMILES	EC50 [1]	EC50 [2]
C[C@]1(c2ccc(Cl)cc2F)Oc2cccc(N3CCN(Cc4nc5ccc(C(=O)O)cc5n4C[C@@H]4CCO4)[C@H]4CC[C@H]43)c2O1 (single isomer, unassigned) [Example 18c]	0.0058 µM	0.01 µM
COc1cc(C(=O)O)cc2c1nc(CN1CCN(c3cccc4c3O[C@@](C)(c3ccc(Cl)cn3)O4)[C@H]3CC[C@@H]31)n2C[C@@H]1CCCO1 (single isomer, unassigned) [Example 7c, 2-(((1R*,6R*)-5-((R*)-2-(5-Chloropyridin-2-yl)-2-methylbenzo[d][1,3]dioxol-4-yl)-2,5-diazabicyclo[4.2.0]octan-2-yl)methyl)-4-methoxy-1-(((S)-tetrahydrofuran-2-yl)methyl)-1H-benzo[d]imidazole-6-carboxylic acid]	0.11 µM	0.032 µM
C[C@]1(c2ccc(Cl)cn2)Oc2cccc(N3CCN(Cc4nc5c(Cl)cc(C(=O)O)cc5n4C[C@@H]4CCO4)[C@H]4CC[C@H]43)c2O1 (single isomer, unassigned) [Example 20d, 4-Chloro-2-(((1R*,6S*)-5-((R*)-2-(5-chloropyridin-2-yl)-2-methylbenzo[d][1,3]dioxol-4-yl)-2,5-diazabicyclo[4.2.0]octan-2-yl)methyl)-1-(((S)-oxetan-2-yl)methyl)-1H-benzo[d]imidazole-6-carboxylic acid]	0.0025 µM	0.0028 µM
C[C@]1(c2ccc(Cl)cn2)Oc2cccc(N3CCN(Cc4nc5c(F)cc(C(=O)O)cc5n4CC4(C#N)CC4)[C@H]4CC[C@@H]43)c2O1 (single isomer, unassigned) [Example 24b]	0.0021 µM	0.008 µM
C[C@]1(c2ccc(Cl)cc2F)Oc2cccc(N3CCN(Cc4nc5ccc(C(=O)O)cc5n4C[C@@H]4CCO4)[C@H]4CC[C@@H]43)c2O1 (single isomer, unassigned) [Example 21b, 2-(((1R*,6R*)-5-((R*)-2-(4-Chloro-2-fluorophenyl)-2-methylbenzo[d][1,3]dioxol-4-yl)-2,5-diazabicyclo[4.2.0]octan-2-yl)methyl)-1-(((S)-oxetan-2-yl)methyl)-1H-benzo[d]imidazole-6-carboxylic acid]	0.34 µM	2.2 µM
COc1cc(C(=O)O)cc2c1nc(CN1CCN(c3cccc4c3O[C@@](C)(c3ccc(Cl)cn3)O4)[C@@H]3CC[C@@H]31)n2C[C@@H]1CCCO1 (single isomer, unassigned) [Example 8d]	0.093 µM	0.37 µM
C[C@]1(c2ccc(Cl)cn2)Oc2cccc(N3CCN(Cc4nc5ccc(C(=O)O)cc5n4C[C@@H]4CCO4)[C@H]4CC[C@H]43)c2O1 (single isomer, unassigned) [Example 5c]	0.18 µM	1.8 µM
COc1cc(C(=O)O)cc2c1nc(CN1CCN(c3cccc4c3O[C@@](C)(c3ccc(Cl)cn3)O4)[C@H]3CC[C@@H]31)n2C[C@@H]1CCCO1 (single isomer, unassigned) [Example 7a, 2-(((1R*,6R*)-5-((R*)-2-(5-Chloropyridin-2-yl)-2-methylbenzo[d][1,3]dioxol-4-yl)-2,5-diazabicyclo[4.2.0]octan-2-yl)methyl)-4-methoxy-1-(((S)-tetrahydrofuran-2-yl)methyl)-1H-benzo[d]imidazole-6-carboxylic acid]	0.027 µM	0.072 µM
C[C@]1(c2ccc(Cl)cn2)Oc2cccc(N3CCN(Cc4nc5ccc(C(=O)O)cc5n4C[C@@H]4CCO4)[C@H]4CC[C@@H]43)c2O1 (single isomer, unassigned) [Example 22b, 2-(((1R*,6R*)-5-((R*)-2-(5-Chloropyridin-2-yl)-2-methylbenzo[d][1,3]dioxol-4-yl)-2,5-diazabicyclo[4.2.0]octan-2-yl)methyl)-1-(((S)-oxetan-2-yl)methyl)-1H-benzo[d]imidazole-6-carboxylic acid]	0.0053 µM	0.018 µM
C[C@]1(c2ccc(Cl)cn2)Oc2cccc(N3CCN(Cc4nc5ccc(C(=O)O)cc5n4C[C@@H]4CCO4)[C@H]4CC[C@@H]43)c2O1 (single isomer, unassigned) [Example 22a, 2-(((1R*,6R*)-5-((R*)-2-(5-Chloropyridin-2-yl)-2-methylbenzo[d][1,3]dioxol-4-yl)-2,5-diazabicyclo[4.2.0]octan-2-yl)methyl)-1-(((S)-oxetan-2-yl)methyl)-1H-benzo[d]imidazole-6-carboxylic acid]	0.029 µM	0.049 µM
CC1(c2ccc(Cl)cn2)Oc2cccc(N3CCN(Cc4nc5c(F)cc(C(=O)O)cc5n4CCOC4CC4(F)F)[C@H]4CC[C@@H]43)c2O1 (mixture of isomers) [Example 14, rac-2-(((1R,6R)-5-(2-(5-Chloropyridin-2-yl)-2-methylbenzo[d][1,3]dioxol-4-yl)-2,5-diazabicyclo[4.2.0]octan-2-yl)methyl)-1-(2-(2,2-difluorocyclopropoxy)ethyl)-4-fluoro-1H-benzo[d]imidazole-6-carboxylic acid]	0.045 µM	0.038 µM
C[C@]1(c2ccc(Cl)cn2)Oc2cccc(N3CCN(Cc4nc5c(F)cc(C(=O)O)cc5n4CC4(CC#N)CC4)[C@H]4CC[C@@H]43)c2O1 (single isomer, unassigned) [Example 23d]	0.011 µM	0.0076 µM
C[C@]1(c2ccc(Cl)cc2F)Oc2cccc(N3CCN(Cc4nc5c(F)cc(C(=O)O)cc5n4C[C@@H]4CCO4)[C@H]4CC[C@H]43)c2O1 (relative stereo) [Example 9d, 2-((1R*,6S*)-5-(R*)-2-(4-Chloro-2-fluorophenyl)-2-methylbenzo[d][1,3]dioxol-4-yl)-2,5-diazabicyclo[4.2.0]octan-2-yl)methyl)-4-fluoro-1-(((S)-oxetan-2-yl)methyl)-1H-benzo[d]imidazole-6-carboxylic acid]	0.0023 µM	0.0043 µM
